Measurements taken from PMC8909834, “An Orally Bioavailable and Highly Efficacious Inhibitor of CDK9/FLT3 for the Treatment of Acute Myeloid Leukemia” (Cancers, 2022).

Key:
Test in all cases: Kinase Hotspot radiolabel assay
Format in all cases: biochemical
Conditions in all cases: read-out: % Residual Activity
[1] = biological target: T1, WNK1 (Homo sapiens, UniProt Q9H4A3)
T1 construct: purchased Reaction Biology Corporation (Kinase HotSpot)
How it was run: (§1)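 Step one: screen at 1 µM across 369 kinases (Hotspot, radiolabel detection). Step two: Ki determination for kinases with >90% inhibition.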

[2] = biological target: T2, CAMK2b (Homo sapiens, UniProt Q13554)
T2 construct: purchased Reaction Biology Corporation (Kinase HotSpot)
How it was run: as §1

[3] = biological target: T3, EPHA1 (Homo sapiens, UniProt P21709)
T3 construct: purchased Reaction Biology Corporation (Kinase HotSpot)
How it was run: as §1

[4] = biological target: T4, TGFBR2 (Homo sapiens, UniProt P37173)
T4 construct: purchased Reaction Biology Corporation (Kinase HotSpot)
How it was run: as §1

[5] = biological target: T5, IKKe/IKBKE (Homo sapiens, UniProt Q14164)
T5 construct: purchased Reaction Biology Corporation (Kinase HotSpot)
How it was run: as §1

[6] = biological target: T6, NEK11 (Homo sapiens, UniProt Q8NG66)
T6 construct: purchased Reaction Biology Corporation (Kinase HotSpot)
How it was run: as §1

[7] = biological target: T7, GLK/MAP4K3 (Homo sapiens, UniProt Q8IVH8)
T7 construct: purchased Reaction Biology Corporation (Kinase HotSpot)
How it was run: as §1

[8] = biological target: T8, MSK2/RPS6KA4 (Homo sapiens, UniProt O75676)
T8 construct: purchased Reaction Biology Corporation (Kinase HotSpot)
How it was run: as §1

[9] = biological target: T9, BMPR2 (Homo sapiens, UniProt Q13873)
T9 construct: purchased Reaction Biology Corporation (Kinase HotSpot)
How it was run: as §1

[10] = biological target: T10, SIK2 (Homo sapiens, UniProt Q9H0K1)
T10 construct: purchased Reaction Biology Corporation (Kinase HotSpot)
How it was run: as §1

[11] = biological target: T11, MKK7 (Homo sapiens, UniProt O14733)
T11 construct: purchased Reaction Biology Corporation (Kinase HotSpot)
How it was run: as §1

[12] = biological target: T12, BRK (Homo sapiens, UniProt Q13882)
T12 construct: purchased Reaction Biology Corporation (Kinase HotSpot)
How it was run: as §1

[13] = biological target: T13, EPHB2 (Homo sapiens, UniProt P29323)
T13 construct: purchased Reaction Biology Corporation (Kinase HotSpot)
How it was run: as §1

[14] = biological target: T14, PKCb1 (Homo sapiens, UniProt P05771)
T14 construct: purchased Reaction Biology Corporation (Kinase HotSpot)
How it was run: as §1

[15] = biological target: T15, ASK1/MAP3K5 (Homo sapiens, UniProt Q99683)
T15 construct: purchased Reaction Biology Corporation (Kinase HotSpot)
How it was run: as §1

[16] = biological target: T16, PAK6 (Homo sapiens, UniProt Q9NQU5)
T16 construct: purchased Reaction Biology Corporation (Kinase HotSpot)
How it was run: as §1

[17] = biological target: T17, LATS2 (Homo sapiens, UniProt Q9NRM7)
T17 construct: purchased Reaction Biology Corporation (Kinase HotSpot)
How it was run: as §1

[18] = biological target: T18, Aurora B (Homo sapiens, UniProt Q96GD4)
T18 construct: purchased Reaction Biology Corporation (Kinase HotSpot)
How it was run: as §1

[19] = biological target: T19, BLK (Homo sapiens, UniProt P51451)
T19 construct: purchased Reaction Biology Corporation (Kinase HotSpot)
How it was run: as §1

[20] = biological target: T20, STK21/CIT (Homo sapiens, UniProt O14578)
T20 construct: purchased Reaction Biology Corporation (Kinase HotSpot)
How it was run: as §1

[21] = biological target: T21, p70S6Kb/RPS6KB2 (Homo sapiens, UniProt Q9UBS0)
T21 construct: purchased Reaction Biology Corporation (Kinase HotSpot)
How it was run: as §1

[22] = biological target: T22, ALK3/BMPR1A (Homo sapiens, UniProt P36894)
T22 construct: purchased Reaction Biology Corporation (Kinase HotSpot)
How it was run: as §1

[23] = biological target: T23, ROCK1 (Homo sapiens, UniProt Q13464)
T23 construct: purchased Reaction Biology Corporation (Kinase HotSpot)
How it was run: as §1

[24] = biological target: T24, FLT4/VEGFR3 (Homo sapiens, UniProt P35916)
T24 construct: purchased Reaction Biology Corporation (Kinase HotSpot)
How it was run: as §1

[25] = biological target: T25, IKKa/CHUK (Homo sapiens, UniProt O15111)
T25 construct: purchased Reaction Biology Corporation (Kinase HotSpot)
How it was run: as §1

[26] = biological target: T26, MKK4 (Homo sapiens, UniProt P45985)
T26 construct: purchased Reaction Biology Corporation (Kinase HotSpot)
How it was run: as §1

[27] = biological target: T27, CDK9/cyclin T1 (Homo sapiens, UniProt P50750)
T27 construct: purchased Reaction Biology Corporation (Kinase HotSpot)
How it was run: as §1

[28] = biological target: T28, RIPK2 (Homo sapiens, UniProt O43353)
T28 construct: purchased Reaction Biology Corporation (Kinase HotSpot)
How it was run: as §1

[29] = biological target: T29, ERK2/MAPK1 (Homo sapiens, UniProt P28482)
T29 construct: purchased Reaction Biology Corporation (Kinase HotSpot)
How it was run: as §1

[30] = biological target: T30, TLK2 (Homo sapiens, UniProt Q86UE8)
T30 construct: purchased Reaction Biology Corporation (Kinase HotSpot)
How it was run: as §1

T27 sequence (P50750 whole entry): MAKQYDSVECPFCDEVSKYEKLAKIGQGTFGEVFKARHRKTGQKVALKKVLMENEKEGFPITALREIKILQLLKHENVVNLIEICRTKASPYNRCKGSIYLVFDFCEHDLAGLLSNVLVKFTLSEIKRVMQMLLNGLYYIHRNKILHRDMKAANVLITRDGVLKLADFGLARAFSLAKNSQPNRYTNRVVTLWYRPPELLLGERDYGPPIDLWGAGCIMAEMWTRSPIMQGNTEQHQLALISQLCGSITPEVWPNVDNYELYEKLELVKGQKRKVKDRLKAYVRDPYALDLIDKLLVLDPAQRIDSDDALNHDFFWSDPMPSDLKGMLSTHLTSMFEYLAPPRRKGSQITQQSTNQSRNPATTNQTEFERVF
T27 sequence (O60563 whole entry partner): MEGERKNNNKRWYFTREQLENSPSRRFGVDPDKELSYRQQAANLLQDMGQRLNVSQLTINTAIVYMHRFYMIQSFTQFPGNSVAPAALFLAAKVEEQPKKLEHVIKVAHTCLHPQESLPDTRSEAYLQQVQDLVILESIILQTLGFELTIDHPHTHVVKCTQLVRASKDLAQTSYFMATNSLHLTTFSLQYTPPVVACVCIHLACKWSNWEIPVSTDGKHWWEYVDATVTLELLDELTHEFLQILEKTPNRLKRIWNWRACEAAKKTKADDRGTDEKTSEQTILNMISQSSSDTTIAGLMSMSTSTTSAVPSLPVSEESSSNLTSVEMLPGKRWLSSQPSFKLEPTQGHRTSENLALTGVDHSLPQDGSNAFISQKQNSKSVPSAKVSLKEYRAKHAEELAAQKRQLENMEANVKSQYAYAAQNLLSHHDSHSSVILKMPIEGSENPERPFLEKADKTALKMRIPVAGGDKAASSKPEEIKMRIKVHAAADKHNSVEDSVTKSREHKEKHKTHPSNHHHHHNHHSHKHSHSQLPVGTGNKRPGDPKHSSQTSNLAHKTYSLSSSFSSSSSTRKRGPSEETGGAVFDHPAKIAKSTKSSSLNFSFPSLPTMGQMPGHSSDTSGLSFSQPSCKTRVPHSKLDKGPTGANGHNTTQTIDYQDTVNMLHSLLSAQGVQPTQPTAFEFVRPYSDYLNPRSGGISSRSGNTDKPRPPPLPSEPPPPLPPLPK
T17 sequence (Q9NRM7 whole entry): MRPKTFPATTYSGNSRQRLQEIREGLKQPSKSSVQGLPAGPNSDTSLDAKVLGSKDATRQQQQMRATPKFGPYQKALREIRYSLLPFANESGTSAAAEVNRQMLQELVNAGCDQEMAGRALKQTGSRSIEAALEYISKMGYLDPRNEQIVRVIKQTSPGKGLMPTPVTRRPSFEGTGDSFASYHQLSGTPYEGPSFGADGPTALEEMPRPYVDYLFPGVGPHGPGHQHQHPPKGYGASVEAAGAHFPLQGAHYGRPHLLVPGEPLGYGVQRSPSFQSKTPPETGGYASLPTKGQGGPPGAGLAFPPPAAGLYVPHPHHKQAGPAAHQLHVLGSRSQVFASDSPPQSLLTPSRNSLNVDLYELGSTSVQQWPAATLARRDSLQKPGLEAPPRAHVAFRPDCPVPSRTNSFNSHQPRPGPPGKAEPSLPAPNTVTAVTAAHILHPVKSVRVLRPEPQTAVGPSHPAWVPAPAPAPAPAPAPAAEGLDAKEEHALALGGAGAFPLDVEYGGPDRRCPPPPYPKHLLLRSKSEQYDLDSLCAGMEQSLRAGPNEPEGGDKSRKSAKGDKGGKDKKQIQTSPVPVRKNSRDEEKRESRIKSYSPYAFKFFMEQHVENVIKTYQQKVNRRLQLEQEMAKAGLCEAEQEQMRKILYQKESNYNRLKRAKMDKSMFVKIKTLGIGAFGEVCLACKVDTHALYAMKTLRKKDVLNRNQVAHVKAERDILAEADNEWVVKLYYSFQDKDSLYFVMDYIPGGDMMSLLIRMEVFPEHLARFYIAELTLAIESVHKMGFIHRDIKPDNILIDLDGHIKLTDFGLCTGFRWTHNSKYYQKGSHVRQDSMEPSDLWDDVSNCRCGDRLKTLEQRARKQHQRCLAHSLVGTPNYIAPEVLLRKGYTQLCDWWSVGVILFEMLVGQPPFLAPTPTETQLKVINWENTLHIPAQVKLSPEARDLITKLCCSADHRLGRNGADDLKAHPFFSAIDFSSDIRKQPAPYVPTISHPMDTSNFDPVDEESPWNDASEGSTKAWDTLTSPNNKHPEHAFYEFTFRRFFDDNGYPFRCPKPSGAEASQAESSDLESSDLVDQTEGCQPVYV
T30 sequence (Q86UE8 whole entry): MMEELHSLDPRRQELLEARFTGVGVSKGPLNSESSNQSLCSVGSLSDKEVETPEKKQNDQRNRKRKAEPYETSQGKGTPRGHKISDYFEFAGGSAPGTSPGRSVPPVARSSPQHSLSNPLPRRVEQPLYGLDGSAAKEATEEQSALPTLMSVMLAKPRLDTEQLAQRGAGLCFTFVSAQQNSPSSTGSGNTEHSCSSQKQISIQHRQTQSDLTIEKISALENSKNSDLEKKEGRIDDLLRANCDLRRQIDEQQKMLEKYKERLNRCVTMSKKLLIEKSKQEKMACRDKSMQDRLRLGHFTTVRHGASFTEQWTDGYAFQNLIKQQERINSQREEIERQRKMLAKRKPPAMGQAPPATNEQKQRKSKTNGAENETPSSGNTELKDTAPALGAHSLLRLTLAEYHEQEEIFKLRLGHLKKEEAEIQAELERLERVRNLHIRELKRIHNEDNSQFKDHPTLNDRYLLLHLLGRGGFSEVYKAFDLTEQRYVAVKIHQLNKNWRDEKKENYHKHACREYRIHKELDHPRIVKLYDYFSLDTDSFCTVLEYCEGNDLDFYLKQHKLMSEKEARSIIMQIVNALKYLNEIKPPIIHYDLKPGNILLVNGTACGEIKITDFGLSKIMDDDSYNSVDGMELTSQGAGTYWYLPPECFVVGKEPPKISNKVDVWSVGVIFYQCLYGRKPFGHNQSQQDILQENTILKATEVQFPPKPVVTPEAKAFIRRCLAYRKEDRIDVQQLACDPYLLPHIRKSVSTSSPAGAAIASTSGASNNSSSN
T20 sequence (O14578 whole entry): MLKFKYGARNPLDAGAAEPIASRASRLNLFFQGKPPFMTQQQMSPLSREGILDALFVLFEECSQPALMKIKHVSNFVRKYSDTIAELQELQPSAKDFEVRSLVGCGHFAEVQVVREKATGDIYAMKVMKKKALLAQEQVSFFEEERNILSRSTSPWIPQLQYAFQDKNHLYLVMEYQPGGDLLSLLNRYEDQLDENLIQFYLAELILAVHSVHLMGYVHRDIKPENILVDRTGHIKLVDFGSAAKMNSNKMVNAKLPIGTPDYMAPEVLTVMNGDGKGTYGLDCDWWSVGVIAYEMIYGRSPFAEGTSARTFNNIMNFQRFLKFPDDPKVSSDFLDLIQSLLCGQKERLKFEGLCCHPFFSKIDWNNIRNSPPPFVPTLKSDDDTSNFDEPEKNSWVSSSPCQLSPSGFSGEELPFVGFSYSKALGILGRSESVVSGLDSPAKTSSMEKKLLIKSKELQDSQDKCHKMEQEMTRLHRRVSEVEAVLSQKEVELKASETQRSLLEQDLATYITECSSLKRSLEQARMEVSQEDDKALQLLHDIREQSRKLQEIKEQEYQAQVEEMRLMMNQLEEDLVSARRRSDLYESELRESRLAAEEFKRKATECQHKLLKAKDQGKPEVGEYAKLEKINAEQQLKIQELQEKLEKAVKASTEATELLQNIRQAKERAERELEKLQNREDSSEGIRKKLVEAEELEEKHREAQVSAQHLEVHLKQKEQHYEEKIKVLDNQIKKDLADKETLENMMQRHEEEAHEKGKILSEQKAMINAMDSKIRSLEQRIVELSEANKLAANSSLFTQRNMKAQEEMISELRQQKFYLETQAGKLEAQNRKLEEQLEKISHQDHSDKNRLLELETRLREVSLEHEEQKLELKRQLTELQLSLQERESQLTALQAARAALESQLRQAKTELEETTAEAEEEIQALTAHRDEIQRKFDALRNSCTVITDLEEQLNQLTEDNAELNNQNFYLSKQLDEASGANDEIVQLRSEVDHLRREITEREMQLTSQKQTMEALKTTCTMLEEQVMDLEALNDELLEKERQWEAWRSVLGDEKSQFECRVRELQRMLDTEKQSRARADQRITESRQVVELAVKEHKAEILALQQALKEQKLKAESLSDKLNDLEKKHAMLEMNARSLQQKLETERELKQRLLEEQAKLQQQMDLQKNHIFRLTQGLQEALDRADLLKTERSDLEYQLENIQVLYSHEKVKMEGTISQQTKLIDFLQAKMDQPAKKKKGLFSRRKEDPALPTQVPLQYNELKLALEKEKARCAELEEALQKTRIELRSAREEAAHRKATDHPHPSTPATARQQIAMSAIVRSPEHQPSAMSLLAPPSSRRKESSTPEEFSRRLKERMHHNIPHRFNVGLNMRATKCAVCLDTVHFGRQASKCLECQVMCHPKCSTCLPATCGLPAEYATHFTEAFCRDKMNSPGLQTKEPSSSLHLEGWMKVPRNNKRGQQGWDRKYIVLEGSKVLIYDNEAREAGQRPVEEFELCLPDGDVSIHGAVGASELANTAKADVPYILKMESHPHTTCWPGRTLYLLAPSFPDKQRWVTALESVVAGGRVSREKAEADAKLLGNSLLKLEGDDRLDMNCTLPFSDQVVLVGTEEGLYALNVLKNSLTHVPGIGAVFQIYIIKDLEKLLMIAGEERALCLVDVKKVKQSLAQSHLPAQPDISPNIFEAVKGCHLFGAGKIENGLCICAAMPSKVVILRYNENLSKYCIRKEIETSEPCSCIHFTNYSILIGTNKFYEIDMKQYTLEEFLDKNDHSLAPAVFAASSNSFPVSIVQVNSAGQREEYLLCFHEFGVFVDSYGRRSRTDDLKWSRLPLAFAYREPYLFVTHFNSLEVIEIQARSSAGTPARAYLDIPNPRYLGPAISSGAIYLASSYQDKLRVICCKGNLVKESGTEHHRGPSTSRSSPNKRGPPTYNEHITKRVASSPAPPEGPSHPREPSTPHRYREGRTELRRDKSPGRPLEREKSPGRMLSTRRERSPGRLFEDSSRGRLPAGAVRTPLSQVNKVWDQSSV

Cc1cnc(N[C@H]2CC[C@H](N)CC2)nc1-c1cnc2ccc(-c3ccccc3)cn12 [CDDD11-8]
remaining activity at 1 µM [1]: 90%
remaining activity at 1 µM [2]: 23.5%
remaining activity at 1 µM [3]: 93.1%
remaining activity at 1 µM [4]: 95.6%
remaining activity at 1 µM [5]: 91.7%
remaining activity at 1 µM [6]: 100%
remaining activity at 1 µM [7]: 9.75%
remaining activity at 1 µM [8]: 97.4%
remaining activity at 1 µM [9]: 90.2%
remaining activity at 1 µM [10]: 35.8%
remaining activity at 1 µM [11]: 95.4%
remaining activity at 1 µM [12]: 87.4%
remaining activity at 1 µM [13]: 80.2%
remaining activity at 1 µM [14]: 87.4%
remaining activity at 1 µM [15]: 90.2%
remaining activity at 1 µM [16]: 96.6%
remaining activity at 1 µM [17]: 30.2%
remaining activity at 1 µM [18]: 89.6%
remaining activity at 1 µM [19]: 47.2%
remaining activity at 1 µM [20]: 85.9%
remaining activity at 1 µM [21]: 98.6%
remaining activity at 1 µM [22]: 98%
remaining activity at 1 µM [23]: 76.3%
remaining activity at 1 µM [24]: 23.3%
remaining activity at 1 µM [25]: 98.5%
remaining activity at 1 µM [26]: 75.6%
remaining activity at 1 µM [27]: 18.5%
remaining activity at 1 µM [28]: 78.1%
remaining activity at 1 µM [29]: 109%
remaining activity at 1 µM [30]: 97.8%
